The values that follow come from patent US9382306B2, “Octapeptide compounds derived from somatostatin and the therapeutic use thereof” (IPSEN PHARMA S.A.S., priority 2008, dated 2016).

In data set [1] the target is T1, somatostatin receptors sub-type 2 (Homo sapiens, UniProt P30874).
T1 construct: expressed in transfected cells; membrane preparations
In words: Affinity for somatostatin receptors: inhibition of [125I-Tyr11]SRIF-14 binding to membranes of transfected CHO-K1 cells. The note with it: competitive inhibition of [125I-Tyr11]SRIF-14 binding, 37° C. As to the method: The affinity of the compounds of the invention for the somatostatin receptors is determined by measurement of the inhibition of the bond of [125I-Tyr11]SRIF-14 to membrane preparations of transfected CHO-K1 cells.
The CHO-K1 cells expressing in a stable fashion each of the sub-types of somatostatin receptors are collected with 0.5 mM of EDTA and centrifuged at 500 g for 5 minutes at 4° C. The pellet is re-suspended in phosphate buffer (PBS) and centrifuged at 500 g for 5 minutes at 4° C. The pellet is re-suspended in Tris 50 mM buffer at pH 7.4 and centrifuged at 500 g for 5 minutes at 4° C. The cells are lyzed by sonication and centrifuged at 39,000 g for 10 minutes. The pellet is re-suspended in Tris 50 mM buffer at pH 7.4, an aliquot is removed for assaying the proteins and the remainder is centrifuged at 50,000 g for 10 minutes. The membranes obtained in this last pellet are stored at −80° C.
Measurement of the competitive inhibition of the bond of [125I-Tyr11]SRIF-14 (Perkin Elmer) on each of the sub-types of somatostatin receptors is carried out in duplicate in 96-well polypropylene plates. The cell membranes (5 to 20 µg of proteins/well) are incubated with [125I-Tyr11]SRIF-14 (0.05 to 0.1 nM) for 50 to 90 minutes at 37° C. (conditions dependent on the sub-type of receptor) in a HEPES buffer medium 50 mM pH 7.4, comprising 0.2% bovine serum albumin (BSA), MgCl2 5 mM, Trasylol 200 KIU/mL, Bacitracin 0.02 mg/mL, phenylmethylsulphonyl fluoride 0.02 mg/mL.
The bound [125I-Tyr11]SRIF-14 is separated from the free [125I-Tyr11]SRIF-14 by filtration through GF/C glass fibre plates (Unifilter, Perkin Elmer) pre-impregnated with 0.1% polyethylenimine (P.E.I.), using a Filtermate 96 (Perkin Elmer). The filters are washed with Tris-HCl buffer 50 mM, pH 7.4 at 4° C. and the radioactivity present is determined using a counter (TopCount, Perkin Elmer).
The data are analyzed by computer-assisted non-linear regression using XLfit 4.2 (IDBS) software.

The nature of data set [2]: Rheology of solutions/gels of the octapeptides (oscillatory, cone/plane rheometer). In kind it is physicochemical. The note with it: 25° C. Here is the method: The viscous and viscoelastic properties of the solutions/gels of the compounds according to the invention can be studied by rheology according to the operating methods described hereafter.
The measurements are in general carried out using a rheometer of “Control Stress Haake 600” type (Haake, Germany) equipped with a cone/plane measurement geometry, with a cone 20 mm in diameter, an angle of 1 degree and an air gap of 52 microns. The measurement temperature is fixed at 25° C. +/−0.2° C. using a thermostatically-controlled bath but can be adjusted if necessary.
Two complementary types of tests are carried out, on the one hand measurements in static mode and on the other hand measurements in dynamic mode (oscillatory rheology); both are briefly described hereafter. […]
For the dynamic measurements, a shear strain (γ0) […] of sinusoidal type, of known amplitude and frequency is applied to the sample. The resultant sinusoidal shear stress is measured (amplitude τ0). […] In this case, the sine curves recorded for the shear strain and the shear stress having a phase angle difference δ. The values of τ0, γ0 and δ make it possible to access the viscoelastic parameters:
The storage modulus (also called elastic modulus) is a measurement of the elastic energy stored (or restored) per unit volume, whilst the loss modulus is a measurement of the energy dissipated per unit volume. These moduli must be calculated in the linear viscoelastic region (i.e. experimental conditions for which these moduli are independent of the amplitude of the shear stress (strain)). These experimental conditions are in general determined by a so-called “stress sweep” experiment which consists of a measurement of the elastic modulus and the loss modulus as a function of the amplitude of the deformation imposed (for a given frequency, typically 1Hz). In general, in the case of small deformations, G′ and G″ vary very little with the deformation. Then, on passing the yield point, a strong reduction in G′ and a maximum of G″ is observed. This transition delimits the linear viscoelasticity region. When the linear viscoelasticity region is known, other tests can be carried out such as “frequency sweep” measurements consisting of measuring the dependence of G′ and G″ as a function of shear frequency at a fixed deformation amplitude, comprised in the linear viscoelasticity region.
The critical deformation is the deformation from which the elastic modulus dependent on the deformation applied at a constant frequency. For higher deformations, the material looses its viscoelastic properties and tends to become more viscous than elastic. […]

A short description of data set [3]: Dynamic release test in PBS. In kind it is physicochemical. As to conditions: PBS pH 7.4, 37° C., % of free compound. Here is the method:
Release studies can be carried out on the octapeptide compounds according to the invention in the form of gel, solid, or in suspension. Two types of tests can be envisaged: static release tests and/or dynamic tests, both are briefly described hereafter.
The experimental parameters are common to both types of tests. The release medium is a liquid medium which is physico-chemically well-controlled, preferably a PBS (phosphate buffer saline) buffer adjusted to pH 7.4 and maintained at 37° C. The release curve is defined as the concentration of the studied compound in the dissolution medium (expressed in % of free compound) as a function of time (minutes, hours, days). To initiate the tests, a know quantity of sample is placed in the dissolution medium at time 0 (t=0 min/h/d), the sample being optionally conditioned in a device which is suited to its initial physical state (gel, solid, suspension). Measurements of the concentration of the compound in the release medium are carried out by one or more analytical methods which are well known in the state of the art such as UV-visible spectrophotometry or the HPLC (High Performance Liquid Chromatography). The parameters of the analytical methods are adjusted as a function of the physico-chemical characteristics of the compounds. The tests can be carried out with various starting concentrations such as 75 mM and 226 mM in the examples presented hereafter.
For the dynamic release studies, controlled stirring or a release medium flow is applied to the samples. In this mode, the samplings and/or concentration determinations are generally automated and the studies can be carried out in systems / instruments which are standardized and well known in the state of the art (cf. European Pharmacopeia systems). For example, certain studies in dynamic mode can be carried out on samples corresponding to the order of 10 mg of pure compound placed in 100 mL of PBS introduced beforehand into standardized beakers and maintained at 37° C. The stirring and samplings / measurements are controlled by a dissolution testing instrument of device type 1 or 2 described by the European Pharmacopeia.

By Ki is commonly meant the dissociation constant of the complex between target and ligand, obtained from inhibition or displacement. A lower Ki goes with higher affinity.

Bridge positions count the residues as written; N and C are the ends. Square brackets hold non-standard residues; d marks the D form. Peptide text beside a SMILES is read from it. ξ: configuration not given here. d2Nal = N[C@H](Cc1ccc2ccccc2c1)C(=O)O; Thr(3ξ) = CC(O)[C@H](N)C(=O)O

T1 sequence (P30874 whole entry): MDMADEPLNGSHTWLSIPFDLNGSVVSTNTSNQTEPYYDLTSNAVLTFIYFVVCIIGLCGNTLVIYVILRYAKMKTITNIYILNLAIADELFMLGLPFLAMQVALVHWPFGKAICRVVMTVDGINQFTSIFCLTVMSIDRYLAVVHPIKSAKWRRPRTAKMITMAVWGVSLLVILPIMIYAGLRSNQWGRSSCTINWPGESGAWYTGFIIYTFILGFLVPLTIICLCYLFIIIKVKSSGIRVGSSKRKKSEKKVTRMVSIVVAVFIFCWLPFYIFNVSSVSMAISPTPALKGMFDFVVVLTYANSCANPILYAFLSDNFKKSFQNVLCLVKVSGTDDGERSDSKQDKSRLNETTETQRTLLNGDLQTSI

In turn, `CC(C)[C@@H]1NC(=O)[C@H](CCCCN)NC(=O)[C@@H](C)NC(=O)[C@H](Cc2ccc(O)cc2)NC(=O)[C@@H](NC(=O)[C@H](N)Cc2ccc3ccccc3c2)CSSC[C@@H](C(=O)N[C@H](C(N)=O)C(C)O)NC1=O` (stereo partly drawn) [Example 4, H-D-2-Nal^1-cyclo(Cys^2Tyr^3-D-Ala^4-Lys^5-Val^6Cys^7)-Thr^8-NH2.2 CH3COOH] (H-[d2Nal]CY[dA]KVC[Thr(3ξ)]-NH2; disulfide 2-7) gave a Ki in data set [1] of no more than 5000 nM. Further, the Critical deformation rheology is 800 Pa in data set [2] (75 mM) and 18,600 Pa in data set [2] (226 mM). Further, the Storage modulus rheology in data set [2] (75 mM) is 184,000 Pa; in data set [2] (226 mM), >2,700,000 Pa. The figures for the “Dynamic release after 44 h” value in data set [3] (75 mM starting concentration) and in data set [3] (226 mM starting concentration) were 94% and 75%, respectively.

As to `CC(C)[C@@H]1NC(=O)[C@H](CCCCN)NC(=O)[C@@H](Cc2c[nH]cn2)NC(=O)[C@H](Cc2ccc(O)cc2)NC(=O)[C@@H](NC(=O)[C@H](N)Cc2ccc3ccccc3c2)CSSC[C@@H](C(=O)N[C@H](C(N)=O)C(C)O)NC1=O` (stereo partly drawn) [Example 3, H-D-2-Nal^1-cyclo(Cys^2-Tyr^3-D-His^4-Lys^5-Val^6-Cys^7)-Thr^8-NH2.2 CH3COOH] (H-[d2Nal]CY[dH]KVC[Thr(3ξ)]-NH2; disulfide 2-7), the Ki in data set [1] is no more than 700 nM. For the same compound, the Critical deformation rheology result is “Viscosity” in data set [2] (75 mM) and 360 Pa in data set [2] (226 mM). Further, the Storage modulus rheology result in data set [2] (75 mM) was “Viscosity”; in data set [2] (226 mM), 150,000 Pa. Also, the figures for the “Dynamic release after 44 h” value in data set [3] (75 mM starting concentration) and in data set [3] (226 mM starting concentration) were 100% and 93%, respectively.

Consider `CC(C)[C@@H]1NC(=O)[C@H](CCCCN)NC(=O)[C@@H](Cc2cccc3ccccc23)NC(=O)[C@H](Cc2ccc(O)cc2)NC(=O)[C@@H](NC(=O)[C@H](N)Cc2ccc3ccccc3c2)CSSC[C@@H](C(=O)N[C@H](C(N)=O)C(C)O)NC1=O` (stereo partly drawn) [Example 6, H-D-2-Nal^1-cyclo(Cys^2Tyr^3-13-(1-naphthyl)-D-Ala^4-Lys^5-Val^6-Cys^7)-Thr^8-NH2.2 CH3COOH], for which, in data set [1], the Ki is no more than 5 nM. Further, the Critical deformation rheology in data set [2] (75 mM) is 5000 Pa; in data set [2] (226 mM), 8500 Pa. Also, the Storage modulus rheology in data set [2] (75 mM) is on record as 643,500 Pa; in data set [2] (226 mM) it was >2,700,000 Pa. Further, the entries for the “Dynamic release after 44 h” value in data set [3] (75 mM starting concentration) and in data set [3] (226 mM starting concentration) were 37% and 17%, respectively.
